Where a SMILES comes first, the peptide text is derived from it.

The assay relates to MR766 ZIKV strain. The assay can be described thus: ZIKV MR766 infection of IFNAR KO mice, morbidity. Type of assay: in vivo, mouse. To be noted: MR766, peptide-treated vs control group. The procedure: To assess morbidity, we switched to IFNAR KO mice and infected them with the MR766 ZIKV strain.
All mouse studies were approved by the IACUC of Emory University. C57BL/6 mice were purchased from The Jackson Laboratory. All mice were maintained in specified pathogen-free in accordance with the institutional guidelines of Emory University’s Animal Care and Use Committee. All control and experimental mice were age- and sex-matched. For viral titer assessment, Wild-type C57BL/6 J mice were injected with 2 mg of an anti-Ifnar1 blocking antibody (MAR1-5A3) by the intraperitoneal route 24hrs prior to infection. Mice were anesthetized with isoflurane and inoculated by the subcutaneous route into both rear footpads with 5 × 10^4 PFU of ZIKV PRVABC59 (1 × 10^5 PFU total inoculum per mouse) in a 20µL inoculum diluted in Hanks balanced salt solution (HBSS) supplemented with 1% heat-inactivated FBS. For analysis of morbidity by ZIKV viral infection, we infected 5- to 6-week-old IFNAR KO mice with ZIKV MR766 (100 PFU total inoculum per mouse). Mice were monitored daily for morbidity and mortality.

With `CC[C@H](C)[C@H](NC(=O)[C@@H](NC(=O)CNC(=O)[C@H](CC(C)C)NC(=O)[C@H](Cc1ccccc1)NC(=O)[C@H](Cc1ccccc1)NC(=O)[C@H](CC(C)C)NC(=O)[C@H](CC(C)C)NC(=O)[C@H](CC(C)C)NC(=O)[C@H](CCSC)NC(=O)[C@@H](N)CO)[C@@H](C)O)C(=O)N[C@@H](CO)C(=O)N[C@@H](CC(C)C)C(=O)N[C@@H](CO)C(=O)N[C@@H](CC(C)C)C(=O)N[C@@H](CS)C(=O)N[C@@H](CCC(N)=O)C(=O)N[C@@H](CC(=O)O)C(=O)N[C@@H](CC(=O)O)C(=O)N[C@@H](CCC(N)=O)C(=O)N[C@@H](CCC(=O)O)C(=O)N[C@@H](CCCNC(=N)N)C(=O)N[C@@H](CS)C(=O)O` [Yodha] (H-SMLLLFFLGTISLSLCQDDQERC-OH; N-terminus and C-terminus assumed), the weight changes result is “did not observe any differences”. Further, under “data not shown”, the survival entry is listed as “did not observe any differences”.

Values taken from PMC7804942, “The amphibian peptide Yodha is virucidal for Zika and dengue viruses” (Scientific Reports, 2021).
